Patent publication US20240376055A1, “INHIBITORS OF TRANSGLUTAMINASES” (Zedira GmbH, priority 2021, published 2024)

What was measured:
[1] = Caco-2 permeability assay (CacoReady kit); type: in vitro ADME; conditions: human; Caco-2 barrier
Procedure: Permeability coefficients (Papp values) were obtained from Caco-2 barrier studies predicting oral/intestinal bioavailability of the tested compounds. The assays were performed by using CacoReady™ ready-to-use kits from ReadyCell according to the manufacturers protocol.

[2] = Log D by shake flask method (octanol / PBS pH 7.4, HPLC); type: physicochemical; conditions: octanol/phosphate-buffered saline; octanol / PBS pH 7.4, shake flask
Procedure: In order to classify the inventive compounds according to their lipophilicity, Log D values (distribution coefficient) were determined by means of the well-established shake flask method, measuring the partition of a compound between an octanol and phosphate-buffered saline (PBS, pH 7.4) by HPLC.
Compounds with a moderate lipophilicity (Log D values from 0 to 3) are usually advantaged for oral absorption, being in balance between solubility and permeability. However, sophisticated formulation of a compound might improve oral bioavailability for highly lipophilic compounds.

[3] = molecular target: T1, recombinant human transglutaminase 2 (Homo sapiens, UniProt P21980); experiment: Transglutaminase assay (DCC-assay: dansylcadaverine incorporation into dimethylcasein); type: biochemical; conditions: for IC50: 10 nM TG2, 37° C., slope 20-30 min
T1 construct: purchased Zedira T022
T1 sequence (P21980 1-687): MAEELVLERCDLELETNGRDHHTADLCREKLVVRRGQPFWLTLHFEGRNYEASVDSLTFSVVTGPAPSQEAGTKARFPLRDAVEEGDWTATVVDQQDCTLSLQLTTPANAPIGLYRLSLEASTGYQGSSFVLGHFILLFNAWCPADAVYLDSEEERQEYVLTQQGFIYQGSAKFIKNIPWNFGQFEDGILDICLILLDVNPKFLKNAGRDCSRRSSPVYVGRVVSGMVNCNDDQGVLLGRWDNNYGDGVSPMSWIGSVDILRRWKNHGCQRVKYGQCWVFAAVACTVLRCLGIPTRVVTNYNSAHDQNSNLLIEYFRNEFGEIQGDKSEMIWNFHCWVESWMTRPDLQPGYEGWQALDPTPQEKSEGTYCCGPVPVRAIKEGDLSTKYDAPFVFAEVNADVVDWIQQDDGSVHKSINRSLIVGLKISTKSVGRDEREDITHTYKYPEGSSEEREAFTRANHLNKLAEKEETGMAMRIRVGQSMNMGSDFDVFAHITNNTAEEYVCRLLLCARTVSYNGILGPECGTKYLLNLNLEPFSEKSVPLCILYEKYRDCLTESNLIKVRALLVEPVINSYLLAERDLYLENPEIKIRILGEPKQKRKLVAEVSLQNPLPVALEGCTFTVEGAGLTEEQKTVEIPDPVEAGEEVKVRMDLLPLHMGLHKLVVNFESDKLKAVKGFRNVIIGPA
Procedure: To illustrate the advantage of branched alkyl moieties over aromatic moieties, we refer to reference compounds Ref. 2 (ZED1227, U.S. Pat. No. 9,434,763 B2) and Ref. 3 (A8, ZED1047). Inhibition data were determined using the classical fluorescent transamidation assay (dansylcadaverine incorporation into methylated casein, DCC-assay) as described [Büchold, C.; Hils, M.; Gerlach, U.; Weber, J.; Pelzer, C.; Heil, A.; Aeschlimann, D.; Pasternack, R. Features of ZED1227: The First-In-Class Tissue Transglutaminase Inhibitor Undergoing Clinical Evaluation for the Treatment of Celiac Disease. Cells 2022, 11, 1667. https://doi.org/10.3390/cells11101667]. Casein is one of the best known high molecular weight (24 kDa) protein substrates for transglutaminases. Please note, the IC50 value of Ref. 3 (A8) published in U.S. Pat. No. 9,434,763 B2 cannot be compared to the present data, relying on a fluorogenic isopeptidase assay.
To this extent, inhibition data were determined using the classical fluorescent transamidation assay (dansylcadaverine incorporation into methylated casein, DCC-assay) as described in Büchold et al. [Buchold, C.; Hils, M.; Gerlach, U.; Weber, J.; Pelzer, C.; Heil, A.; Aeschlimann, D.; Pasternack, R. Features of ZED1227: The First-In-Class Tissue Transglutaminase Inhibitor Undergoing Clinical Evaluation for the Treatment of Celiac Disease. Cells 2022, 11, 1667. https://doi.org/10.3390/cells11101667]. Casein is one of the best known high molecular weight (24 kDa) protein substrates for transglutaminases. Inhibition data of the inventive compounds was compared with inhibition of compounds disclosed in U.S. Pat. No. 9,434,763 B2, particularly, compound A8, which is denoted herein as Reference 3. It is noteworthy that the IC50 values of compounds A8 published in U.S. Pat. No. 9,434,763 B2 and E16 from U.S. Pat. No. 11,072,634 B2 cannot be compared to the present data, relying on a fluorogenic isopeptidase assay.
For the determination of potency of inhibitors against tissue transglutaminase, the incorporation of dansylcadaverine into dimethylcasein (Zedira product T036, Lorand et al., Anal Biochem, 1971, 44:221-31) was measured using recombinant human transglutaminase 2 (Zedira Product T022).
The tissue transglutaminase is diluted in buffer (50 mM Tris-HCl, 7.5 mM CaCl2), 150 mM NaCl, pH=7.4). The final concentration of TG2 in the assay is 10 nM. A 10 mM inhibitor stock solution is prepared in DMSO, and from this a serial 1:2-fold dilution series is prepared also in DMSO. […]
Increase in fluorescence is measured using λex=330 nm and λem=500 nm at 37° C. for 30 min. […]
Analysis of enzymatic activity is performed by calculation of the slope of an increase in fluorescence intensity. […]

| Papp [1] [×10⁻⁶ cm/s] | logD [2] | IC50 [3] [nM] | fold more potent compared to Ref. 4 ([3]; compared to Ref. 4, table 1) | fold more potent compared to Ref. 3 ([3]; DCC-assay, compared to Ref. 3 (A8)) [fold] | SMILES |
| --- | --- | --- | --- | --- | --- |
| < 1 | 1 to 3 | 150 to 600 | – | – | CCNC(=O)C(=O)CC[C@H](NC(=O)c1ccn(C)n1)C(=O)Nc1cccn(CC(=O)N[C@]23C[C@H]4C5CC6CC4[C@H](C2)C(C6)[C@H]5C3)c1=O (single isomer, unassigned) [Compound I-80] |
| 1 to 10 | 1 to 3 | 600 to 3500 | – | – | CCNC(=O)C(=O)CC[C@H](NC(=O)c1ncc(OC)o1)C(=O)Nc1cccn(CCC(=O)NC2C3CC4CC(C3)CC2C4)c1=O (stereo partly drawn) [Compound I-87, (S)-N1-(1-(3-(2-adamantylamino)-3-oxopropyl)-2-oxo-1,2-dihydropyridin-3-yl)-N6-ethyl-2-(5-methoxyoxazole-2-carboxamido)-5-oxohexanediamide] |
| – | – | – | about 15 fold | – | CCC(CC)CNC(=O)Cn1cccc(NC(=O)[C@H](CCC(=O)C(=O)NC)NC(=O)c2cncn2C)c1=O [Ref. 1, reference compound] |
| – | – | – | – | 80 | CCC(CC)CNC(=O)Cn1cccc(NC(=O)[C@H](CC/C=C/C(=O)OC)NC(=O)c2cncn2C)c1=O [Ref. 2, reference compound] |
